Our source for the Activity and IC50 values is ChEMBL document CHEMBL4823326 (ACS Med Chem Lett, 2021).

Experiment [1] concerns HEK293. Description: Induction of autophagy in human HEK293 cells expressing GFP-LC3B-RFP assessed as decrease in fluorescence at 10 uM after 24 hrs by multilabel counter method. In kind it is functional. Also noted: scale not given: the % may be the effect or the level left.
The target in experiment [2] is Prolyl endopeptidase (Sus scrofa, UniProt P23687). Description: Inhibition of recombinant porcine PREP expressed in Escherichia coli using Suc-Gly-Pro-AMC as substrate preincubated for 30 mins followed by substrate addition and measured after 60 mins by multilabel counter analysis.
Prolyl endopeptidase, sequence (P23687 whole entry): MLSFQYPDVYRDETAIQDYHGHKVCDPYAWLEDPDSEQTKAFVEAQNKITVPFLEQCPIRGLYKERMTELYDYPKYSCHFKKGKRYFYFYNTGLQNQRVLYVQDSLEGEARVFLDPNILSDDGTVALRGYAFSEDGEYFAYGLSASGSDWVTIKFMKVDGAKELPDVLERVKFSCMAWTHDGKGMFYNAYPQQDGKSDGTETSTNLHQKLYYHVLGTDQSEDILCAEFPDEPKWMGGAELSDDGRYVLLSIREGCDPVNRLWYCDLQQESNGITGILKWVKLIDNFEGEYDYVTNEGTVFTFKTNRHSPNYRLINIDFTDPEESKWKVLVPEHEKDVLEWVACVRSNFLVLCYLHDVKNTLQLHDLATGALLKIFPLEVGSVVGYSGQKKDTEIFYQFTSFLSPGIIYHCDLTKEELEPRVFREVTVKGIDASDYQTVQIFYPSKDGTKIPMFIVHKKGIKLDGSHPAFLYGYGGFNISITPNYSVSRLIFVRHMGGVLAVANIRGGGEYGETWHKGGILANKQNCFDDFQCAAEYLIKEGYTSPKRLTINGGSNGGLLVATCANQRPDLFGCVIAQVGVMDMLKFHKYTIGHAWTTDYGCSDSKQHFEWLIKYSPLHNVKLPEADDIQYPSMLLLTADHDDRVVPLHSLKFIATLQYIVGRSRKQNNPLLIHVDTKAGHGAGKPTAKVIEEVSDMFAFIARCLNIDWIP

As for `N#C[C@@H]1CCCN1C(=O)[C@@H]1CCCN1C(=O)CCCc1ccccc1`, in experiment [1], the Activity is 89%.

On to `O=C(CCCc1ccccc1)N1CCC[C@H]1C(=O)N1CCC[C@H]1c1ccn[nH]1`, for which, in experiment [2], the IC50 (in general, the point on the concentration scale where inhibition reaches its midpoint) was 70 µM.

Turning to `C[C@H](NC(=O)CCCc1ccccc1)C(=O)N1CCC[C@H]1c1nnc[nH]1`, the IC50 in experiment [2] was 55 µM. Same read-out and setting: to `CN(CC(=O)N1CCC[C@H]1c1nnn[nH]1)C(=O)CCc1ccccc1` belongs 62 µM.

Consider `O=C(CCCc1ccccc1)N1CCC[C@H]1C(=O)N1CCC[C@H]1c1nnc[nH]1`, for which the IC50 in experiment [2] was determined as 29 µM.

For the molecule `Cn1nnc([C@@H]2CCCN2C(=O)[C@@H]2CCCN2C(=O)CCCc2ccccc2)n1`, in experiment [2], the IC50 was found to be 12 µM.
